2 compounds from patent publication US20250197865A1, “PHARMACEUTICAL COMPOSITION FOR TREATMENT OR PREVENTION OF FIBROTIC DISEASE” (KYUSHU UNIVERSITY, NATIONAL UNIVERSITY CORPORATION, priority 2022, published 2025) can be followed below.

For one assay, the system named is TGFβ/SMAD pathway. The experiment in a line: SIS3 treatment of myofibroblasts from carbon tetrachloride-induced fibrotic liver, mRNA by real-time RT-PCR. In kind it is cell-based, mouse. The following applies: myofibroblasts from CCl4 liver fibrosis model; SIS3 3 μM; P4HA3, Col1α1, Col1α2, Col3α1; FIG. 26b. The source says:
(§1) Hepatic stellate cells, which are involved in liver fibrosis, are known to be activated by TGFβ (Fabregat, I. et al., FEBS J., 283:2219-2232 (2016)). Therefore, the effects of TGFβ and its specific inhibitor SIS3, as well as an inhibitor of SMAD3 involved in signal transduction of the TGFβ pathway (si SMAD3), on the mRNA expression of fibrosis-related factors in […] were examined. SIS3 (CAS number: 1009104-85-1) was used under catalog number 15945 from Cayman Chemical Company. SIS3 was added to the culture medium at a final concentration of 3 μM and administered. Si SMAD3 was used as a knockdown reagent for SMAD3. si SMAD3 was used under catalog number 4390771 (Assay ID: s69495) from ThermoFisher Scientific. si SMAD3 was administered to cultured cells in the same manner as in Examples 3, 7, and 13. LX-2, a cultured hepatic stellate cell line, was cultured in DMEM supplemented with 2% FBS.
Bar graph showing the mRNA expression levels of P4HA3, 1α1 collagen (Col1α1), 1α2 collagen (Col1α2), and 3α1 collagen (Col3α1) in myofibroblasts isolated from liver tissue of a mouse model of liver damage and liver fibrosis caused by carbon tetrachloride administration and treated with SIS3, an inhibitor of the TGFβ/SMAD pathway. […] The number of samples for each group was 5.
For orientation: Quantitative PCR measures a nucleic acid by following its amplification.

In assay [1] the test system is P4HA3 and 1α1 collagen (Col1α1) mRNA expression in LX-2 cells. The assay is described as follows: TGFβ treatment of cultured LX-2 hepatic stellate cell line, mRNA by real-time RT-PCR. In kind it is cell-based. The following applies: TGFβ 5 ng/mL for 12 hr, FIG. 26a.
Source text: as §1
First, the effect of TGFβ on the mRNA expression of P4HA3 or 1α1 collagen (Col1α1) in the cultured LX-2 cells was examined. FIG. 26a is a bar graph showing the mRNA expression level of P4HA3 or 1α1 collagen (Col1α1) in LX-2 cells treated with DMSO or TGFβ (5 ng/ML) for 12 hr. […] The number of samples for each group was 3. […] Error bars indicate standard deviation.

Turning to `COc1cc2c(cc1OC)CN(C(=O)/C=C/c1c(-c3ccccc3)n(C)c3ncccc13)CC2` [SIS3], in the assay on TGFβ/SMAD pathway, the “mRNA expression of fibrosis-related factors including P4HA3” value is “suppressed”.
Take TGFβ: in assay [1], the “mRNA expression of 1α1 collagen (Col1α1)” value is “enhanced” and the “mRNA expression of P4HA3” value is “enhanced”.
